According to paper PMC11558128 (Advanced Science, 2024):
Substitutions are numbered along the chain they refer to. Read-outs that look alike come from different tables or passages of the source. Positions of bridges follow the written chain, without caps; N, C: chain ends. Residues, ends and D or L forms follow the SMILES beside them.

Experiments:
Experiment in all cases: cell-based
rKv4.2 = target: T1, rKv4.2 (Rattus norvegicus, UniProt Q63881); conditions: whole-cell patch clamp, HEK293T, n = 3-8, SEM
T1 construct: expressed in transfected cells; host or cells: HEK293T
T1 sequence (Q63881 1-630): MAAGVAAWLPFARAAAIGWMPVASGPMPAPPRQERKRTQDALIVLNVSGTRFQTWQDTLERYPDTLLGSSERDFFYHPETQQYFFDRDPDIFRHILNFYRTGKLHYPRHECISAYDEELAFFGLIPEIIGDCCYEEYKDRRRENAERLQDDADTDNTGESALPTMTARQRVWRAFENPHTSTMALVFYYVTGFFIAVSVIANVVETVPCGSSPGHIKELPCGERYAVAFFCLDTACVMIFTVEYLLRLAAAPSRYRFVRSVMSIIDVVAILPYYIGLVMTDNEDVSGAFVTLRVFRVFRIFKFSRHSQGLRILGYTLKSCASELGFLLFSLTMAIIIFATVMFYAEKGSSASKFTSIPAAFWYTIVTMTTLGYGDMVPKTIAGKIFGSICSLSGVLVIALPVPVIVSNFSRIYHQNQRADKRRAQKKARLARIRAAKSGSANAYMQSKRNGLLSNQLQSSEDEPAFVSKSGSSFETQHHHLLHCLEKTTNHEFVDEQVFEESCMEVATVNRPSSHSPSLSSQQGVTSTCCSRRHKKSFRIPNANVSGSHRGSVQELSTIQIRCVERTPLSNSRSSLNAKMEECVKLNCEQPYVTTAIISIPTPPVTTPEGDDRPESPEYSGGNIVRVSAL

rKv4.2 N282A = target: T2, rKv4.2 N282A (Rattus norvegicus, UniProt Q63881, N282A); conditions: mean ± SEM
T2 construct: expressed in transfected cells; host or cells: HEK293T
T2 sequence (Q63881 1-630 N282A): T1 sequence (Q63881 1-630) with N282A

rKv4.2 E283K = target: T3, rKv4.2 E283K (Rattus norvegicus, UniProt Q63881, E283K); conditions: mean ± SEM
T3 construct: expressed in transfected cells; host or cells: HEK293T
T3 sequence (Q63881 1-630 E283K): T1 sequence (Q63881 1-630) with E283K

rKv4.3 = target: T4, rKv4.3 (Rattus norvegicus, UniProt Q62897); conditions: whole-cell patch clamp, HEK293T, mean ± S.E.M., SEM
T4 construct: expressed in transfected cells; host or cells: HEK293T
T4 sequence (Q62897 1-655): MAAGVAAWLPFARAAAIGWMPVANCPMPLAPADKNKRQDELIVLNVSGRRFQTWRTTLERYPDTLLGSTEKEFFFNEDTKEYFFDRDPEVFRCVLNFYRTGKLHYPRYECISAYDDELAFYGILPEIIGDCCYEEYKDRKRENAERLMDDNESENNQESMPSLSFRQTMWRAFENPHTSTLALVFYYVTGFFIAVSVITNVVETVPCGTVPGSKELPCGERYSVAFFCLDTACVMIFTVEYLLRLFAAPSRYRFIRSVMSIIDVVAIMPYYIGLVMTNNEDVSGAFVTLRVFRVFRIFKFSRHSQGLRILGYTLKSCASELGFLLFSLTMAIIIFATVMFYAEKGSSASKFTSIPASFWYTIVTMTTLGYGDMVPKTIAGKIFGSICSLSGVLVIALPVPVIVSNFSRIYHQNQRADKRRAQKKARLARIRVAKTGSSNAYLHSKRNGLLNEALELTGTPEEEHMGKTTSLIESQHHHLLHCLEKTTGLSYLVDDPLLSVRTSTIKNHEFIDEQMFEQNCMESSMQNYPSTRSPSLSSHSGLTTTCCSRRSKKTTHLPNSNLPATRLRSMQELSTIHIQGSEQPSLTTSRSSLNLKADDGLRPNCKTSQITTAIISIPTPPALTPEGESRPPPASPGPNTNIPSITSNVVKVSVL

[1] = mean ± SEM, read-out: IC50 on rKv4.2 WT
[2] = held at -80 mV, step to 0 mV, n = 3-8

| SMILES | IC50 (rKv4.2; [1]) [nM] | IC50 (rKv4.2 N282A) [nM] | IC50 (rKv4.2 E283K) [nM] | IC50 (rKv4.3; [2]) [nM] | IC50 (rKv4.2; held at -80 mV, step to 0 mV, mean ± S.E.M., read-out: IC50 for rKv4.2) [nM] | IC50 (rKv4.3; n = 5) [nM] |
| --- | --- | --- | --- | --- | --- | --- |
| CC[C@H](C)[C@H](NC(=O)[C@H](CCC(=O)O)NC(=O)[C@H](Cc1ccc(O)cc1)NC(=O)[C@H](CCCCN)NC(=O)[C@@H]1CSSC[C@@H]2NC(=O)[C@H](CCC(N)=O)NC(=O)[C@H](CC(=O)O)NC(=O)[C@H](CC(N)=O)NC(=O)[C@H](CO)NC(=O)[C@@H]3CCCN3C(=O)[C@H](CC(N)=O)NC(=O)[C@@H]3CSSC[C@H](NC(=O)[C@H](C(C)C)NC(=O)[C@H](CC(C)C)NC(=O)[C@H](CC(N)=O)NC(=O)[C@H](CO)NC(=O)[C@H](CO)NC(=O)[C@H](CCCCN)NC(=O)[C@H](CSSC[C@H](NC(=O)[C@@H](N)CCC(=O)O)C(=O)N[C@@H](CC(C)C)C(=O)NCC(=O)N[C@@H](Cc4ccccc4)C(=O)NCC(=O)N[C@@H](CCCCN)C(=O)NCC(=O)N3)NC2=O)C(=O)N[C@@H](CO)C(=O)N[C@@H](CCCNC(=N)N)C(=O)N[C@@H](CCCCN)C(=O)N[C@@H](Cc2c[nH]cn2)C(=O)N[C@@H](CCCNC(=N)N)C(=O)N[C@@H](Cc2c[nH]c3ccccc23)C(=O)N1)C(N)=O [HNTX-IV] | 51 ± 10 | 11 ± 2 | 5630 ± 1280 | 189 ± 14.7 | – | – |
| CSCC[C@@H]1NC(=O)CNC(=O)[C@H](CCC(=O)O)NC(=O)[C@@H]2CSSC[C@H](NC(=O)[C@@H](N)Cc3ccc(O)cc3)C(=O)N[C@@H](CCC(N)=O)C(=O)N[C@@H](CCCCN)C(=O)N[C@@H](Cc3c[nH]c4ccccc34)C(=O)N[C@@H](CCSC)C(=O)N[C@@H](Cc3c[nH]c4ccccc34)C(=O)N[C@@H]([C@@H](C)O)C(=O)N[C@H]3CSSC[C@H](NC(=O)[C@H](C(C)C)NC1=O)C(=O)N[C@@H](CCCNC(=N)N)C(=O)N[C@@H](CC(C)C)C(=O)N[C@@H](Cc1c[nH]c4ccccc14)C(=O)N[C@H](C(=O)N[C@@H](CCCCN)C(=O)N[C@@H](CCCCN)C(=O)N[C@@H](CCCCN)C(=O)N[C@@H](CC(C)C)C(=O)N[C@@H](Cc1c[nH]c4ccccc14)C(=O)O)CSSC[C@H](NC(=O)[C@H](CCCCN)NC(=O)[C@H](CCCNC(=N)N)NC(=O)[C@H](CCC(=O)O)NC(=O)[C@H](CO)NC(=O)[C@H](CC(=O)O)NC3=O)C(=O)N2 [ProTx-II] | 5 ± 2 | 7 ± 1 | 14 ± 6 | 5.1 ± 0.4 | – | – |
| CC(C)C[C@H](NC(=O)[C@H](Cc1ccc(O)cc1)NC(=O)[C@@H](NC(=O)[C@H](CCCCN)NC(=O)[C@@H]1CSSC[C@@H]2NC(=O)[C@H](CCC(=O)O)NC(=O)[C@H](CC(N)=O)NC(=O)[C@H](CCCCN)NC(=O)CNC(=O)[C@@H]3CCCN3C(=O)[C@H]([C@@H](C)O)NC(=O)[C@@H]3CSSC[C@H](NC(=O)[C@H](C)NC(=O)[C@H](Cc4ccc(O)cc4)NC(=O)[C@H](CC(N)=O)NC(=O)[C@@H]4CCCN4C(=O)[C@H](CSSC[C@H](NC(=O)CN)C(=O)N[C@@H](CCCCN)C(=O)NCC(=O)N[C@@H](Cc4ccccc4)C(=O)NCC(=O)N[C@@H](CC(=O)O)C(=O)N[C@@H](CO)C(=O)N3)NC2=O)C(=O)N[C@@H](CO)C(=O)N[C@@H](CO)C(=O)N[C@@H](CCCCN)C(=O)N[C@@H](Cc2c[nH]cn2)C(=O)N[C@@H](CCCCN)C(=O)N[C@@H](Cc2c[nH]c3ccccc23)C(=O)N1)C(C)C)C(N)=O [HNTX-III] (H-GCKGFGDSCTPGKNECCPNYACSSKHKWCKVYL-NH2; disulfide 2-17, 9-22, 16-29) | 162 ± 23 | 8 ± 2 | 3000 ± 1000 | 373 ± 65.5 | – | – |
| CC(C)C[C@@H]1NC(=O)[C@H](Cc2c[nH]c3ccccc23)NC(=O)[C@H](Cc2ccc(O)cc2)NC(=O)[C@H](CCCNC(=N)N)NC(=O)[C@@H](NC(=O)[C@@H](N)CCC(=O)O)CSSC[C@@H]2NC(=O)[C@@H]3CSSC[C@@H](C(=O)N[C@H](C(=O)N[C@@H](Cc4c[nH]c5ccccc45)C(=O)N[C@@H](CC(=O)O)C(=O)N[C@@H](Cc4c[nH]c5ccccc45)C(=O)N[C@H](C(=O)N[C@@H](Cc4ccccc4)C(N)=O)[C@@H](C)O)C(C)C)NC(=O)[C@H](Cc4c[nH]c5ccccc45)NC(=O)CNC(=O)[C@H](Cc4c[nH]cn4)NC(=O)[C@H](CCCCN)NC(=O)[C@@H]4CCCN4C(=O)[C@H](CO)NC(=O)[C@H](CSSC[C@H](NC(=O)[C@H]([C@@H](C)O)NC(=O)CNC1=O)C(=O)N[C@@H](CO)C(=O)N[C@@H](CCCCN)C(=O)N[C@@H]([C@@H](C)O)C(=O)NCC(=O)N[C@@H](CC(=O)O)C(=O)N3)NC(=O)[C@H](CO)NC(=O)[C@H](CC(C)C)NC(=O)[C@H](Cc1c[nH]cn1)NC(=O)[C@H](CO)NC2=O [HNTX-VIIa] (H-ECRYWLGTCSKTGDCCSHLSCSPKHGWCVWDWTF-NH2; disulfide 2-16, 9-21, 15-28) | – | 21 ± 1 | 62 ± 13 | 130 ± 14.5 | 18 ± 3.2 | – |
| CC[C@H](C)[C@@H]1NC(=O)[C@@H]2CSSC[C@@H]3NC(=O)[C@H](C(C)C)NC(=O)[C@H](CC(C)C)NC(=O)[C@H](CC(N)=O)NC(=O)[C@@H]4CCCN4C(=O)[C@H](CCCNC(=N)N)NC(=O)[C@H](CSSC[C@H](NC(=O)[C@@H](N)CC(=O)O)C(=O)N[C@@H](CC(C)C)C(=O)NCC(=O)N[C@@H](C)C(=O)N[C@@H](Cc4ccccc4)C(=O)N[C@@H](CCCNC(=N)N)C(=O)N[C@@H](CCCCN)C(=O)N2)NC(=O)[C@H](CSSC[C@@H](C(=O)N[C@@H](CCCCN)C(=O)N[C@@H](Cc2ccc(O)cc2)C(=O)N[C@H](C(=O)N[C@@H](Cc2ccccc2)C(N)=O)C(C)C)NC(=O)[C@H](Cc2c[nH]c4ccccc24)NC(=O)[C@H](CCCNC(=N)N)NC(=O)[C@H](Cc2c[nH]cn2)NC(=O)[C@H](C)NC(=O)[C@H](CO)NC(=O)[C@H](CO)NC3=O)NC(=O)[C@H](CCCCN)NC(=O)[C@H](CC(=O)O)NC(=O)[C@H](CC(N)=O)NC(=O)[C@H](CC(=O)O)NC(=O)[C@@H]2CCCN2C1=O [mGpTx1-SA] (H-DCLGAFRKCIPDNDKCCRPNLVCSSAHRWCKYVF-NH2; disulfide 2-17, 9-23, 16-30) | 30000 ± 9000 | – | – | – | – | 2000 ± 300 |
